For this data set the following is noted: human, in vivo.

Each structure is given as a SMILES string.

`N[C@@H](Cc1ccc(O)c(O)c1)C(=O)O` [levodopa] registered an AUC_0-6 h of 1423.0 ± 919.5 ng·h/mL.

The values are drawn from patent US20260130881A1, “SUSTAINED RELEASE DEVICE CONTENTS FOR TREATMENT OF PARKINSON'S DISEASE AND OTHER DISORDERS” (priority 2024, published 2026).
